Laboratory results: ChEMBL document CHEMBL2401728, “An unexpected Dimroth rearrangement leading to annelated thieno[3,2-d][1,2,3]triazolo[1,5-a]pyrimidines with potent antitumor activity” (Eur J Med Chem, 2013)

Experiments:
Format in all cases: functional
MDA-MB-435 [1] = test: Cytotoxicity against human MDA-MB-435 cells assessed as cellular growth at 0.1 uM after 48 hrs by SRB assay relative to control
MDA-MB-468 = test: Cytotoxicity against human MDA-MB-468 cells after 48 hrs by SRB assay; settings: MDA-MB-468, 48 h
OVCAR-5 = test: Cytotoxicity against human OVCAR5 cells assessed as cellular growth at 1 uM after 48 hrs by SRB assay relative to control
SF-295 = test: Cytotoxicity against human SF295 cells assessed as cellular growth at 100 uM after 48 hrs by SRB assay relative to control
Malme-3M = test: Cytotoxicity against human MALME-3M cells assessed as cellular growth at 0.1 uM after 48 hrs by SRB assay relative to control
CCRF-CEM [2] = test: Cytotoxicity against human CCRF-CEM cells assessed as cellular growth at 0.1 uM after 48 hrs by SRB assay relative to control
LOX IMVI [3] = test: Cytotoxicity against human LOXIMVI cells assessed as cellular growth at 100 uM after 48 hrs by SRB assay relative to control
SF-268 [4] = test: Cytotoxicity against human SF268 cells assessed as cellular growth at 0.1 uM after 48 hrs by SRB assay relative to control
UACC-62 = test: Cytotoxicity against human UACC62 cells assessed as cellular growth at 0.01 uM after 48 hrs by SRB assay relative to control
NCI-H322M = test: Cytotoxicity against human NCI-H322M cells assessed as cellular growth at 0.01 uM after 48 hrs by SRB assay relative to control
A498 [5] = test: Cytotoxicity against human A498 cells assessed as cellular growth at 0.01 uM after 48 hrs by SRB assay relative to control
MDA-MB-231 = test: Cytotoxicity against human MDA-MB-231 cells assessed as cellular growth at 0.1 uM after 48 hrs by SRB assay relative to control
SK-MEL-5 [6] = test: Cytotoxicity against human SK-MEL-5 cells after 48 hrs by SRB assay; settings: SK-MEL-5, 48 h
K562 [7] = test: Cytotoxicity against human K562 cells assessed as cellular growth at 0.01 uM after 48 hrs by SRB assay relative to control
SR [8] = test: Cytotoxicity against human SR cells after 48 hrs by SRB assay
U-251 [9] = test: Cytotoxicity against human U251 cells assessed as cellular growth at 100 uM after 48 hrs by SRB assay relative to control
SR [10] = test: Cytotoxicity against human SR cells assessed as cellular growth at 0.1 uM after 48 hrs by SRB assay relative to control
OVCAR-3 = test: Cytotoxicity against human OVCAR3 cells assessed as cellular growth at 0.01 uM after 48 hrs by SRB assay relative to control
A498 [11] = test: Cytotoxicity against human A498 cells assessed as cellular growth at 10 uM after 48 hrs by SRB assay relative to control
LOX IMVI [12] = test: Cytotoxicity against human LOXIMVI cells assessed as cellular growth at 0.01 uM after 48 hrs by SRB assay relative to control
HL-60(TB) [13] = test: Cytotoxicity against human HL-60(TB) cells assessed as cellular growth at 0.01 uM after 48 hrs by SRB assay relative to control
A498 [14] = test: Cytotoxicity against human A498 cells assessed as cellular growth at 1 uM after 48 hrs by SRB assay relative to control
SK-MEL-5 [15] = test: Cytotoxicity against human SK-MEL-5 cells assessed as cellular growth at 100 uM after 48 hrs by SRB assay relative to control
SN12C = test: Cytotoxicity against human SN12C cells assessed as cellular growth at 100 uM after 48 hrs by SRB assay relative to control
T47D = test: Cytotoxicity against human T47D cells after 48 hrs by SRB assay
NCI-H23 = test: Cytotoxicity against human NCI-H23 cells assessed as cellular growth at 1 uM after 48 hrs by SRB assay relative to control
HL-60(TB) [16] = test: Cytotoxicity against human HL-60(TB) cells assessed as cellular growth at 0.1 uM after 48 hrs by SRB assay relative to control
MDA-MB-435 [17] = test: Cytotoxicity against human MDA-MB-435 cells assessed as cellular growth at 100 uM after 48 hrs by SRB assay relative to control
CCRF-CEM [18] = test: Cytotoxicity against human CCRF-CEM cells assessed as cellular growth at 100 uM after 48 hrs by SRB assay relative to control
SF-268 [19] = test: Cytotoxicity against human SF268 cells assessed as cellular growth at 1 uM after 48 hrs by SRB assay relative to control
MCF7 = test: Cytotoxicity against human MCF7 cells assessed as cellular growth at 0.1 uM after 48 hrs by SRB assay relative to control
K562 [20] = test: Cytotoxicity against human K562 cells assessed as cellular growth at 1 uM after 48 hrs by SRB assay relative to control
OVCAR-8 = test: Cytotoxicity against human OVCAR8 cells assessed as cellular growth at 1 uM after 48 hrs by SRB assay relative to control
M14 = test: Cytotoxicity against human M14 cells assessed as cellular growth at 10 uM after 48 hrs by SRB assay relative to control
U-251 [21] = test: Cytotoxicity against human U251 cells after 48 hrs by SRB assay; settings: U-251, 48 h
SK-OV-3 = test: Cytotoxicity against human SKOV3 cells after 48 hrs by SRB assay; settings: SK-OV-3, 48 h
ACHN = test: Cytotoxicity against human ACHN cells after 48 hrs by SRB assay
[22] = read-out: LC50 (the source's name)
[23] = read-out: pLC50 (the source's name) (converted)

SMILES: CN1CCN(CCCn2c3c(sc4ncccc43)c(=O)n3nnc(-c4ccccc4)c23)CC1
- Activity (MDA-MB-435 [1]): 99%
- GI50 (MDA-MB-468; read-out: GI50): 1.82 µM
- CC50 (MDA-MB-468; [22]): 5.96 µM
- TGI (MDA-MB-468; read-out: TGI): 3.29 µM
- GI50 (MDA-MB-468; read-out: pGI50 (converted)): 1.82 µM
- CC50 (MDA-MB-468; [23]): 6.03 µM
- TGI (MDA-MB-468; read-out: pTGI (converted)): 3.31 µM
- Activity (OVCAR-5): 99%
- Activity (SF-295): -84%
- Activity (Malme-3M): 81%
- Activity (CCRF-CEM [2]): 99%
- Activity (LOX IMVI [3]): -46%
- Activity (SF-268 [4]): 89%
- Activity (UACC-62): 91%
- Activity (NCI-H322M): 97%
- Activity (A498 [5]): 67%
- Activity (MDA-MB-231): 100%
- GI50 (SK-MEL-5 [6]; read-out: GI50): 1.7 µM
- CC50 (SK-MEL-5 [6]; [22]): 5.81 µM
- TGI (SK-MEL-5 [6]; read-out: TGI): 3.14 µM
- GI50 (SK-MEL-5 [6]; read-out: pGI50 (converted)): 1.7 µM
- CC50 (SK-MEL-5 [6]; [23]): 5.75 µM
- TGI (SK-MEL-5 [6]; read-out: pTGI (converted)): 3.16 µM
- Activity (K562 [7]): 95%
- GI50 (SR [8]; read-out: GI50): 2.25 µM
- TGI (SR [8]; read-out: TGI): 4.74 µM
- GI50 (SR [8]; read-out: pGI50 (converted)): 2.24 µM
- TGI (SR [8]; read-out: pTGI (converted)): 4.79 µM
- Activity (U-251 [9]): -46%
- Activity (SR [10]): 104%
- Activity (OVCAR-3): 100%
- Activity (A498 [11]): 57%
- Activity (LOX IMVI [12]): 93%
- Activity (HL-60(TB) [13]): 98%
- Activity (A498 [14]): 76%
- Activity (SK-MEL-5 [15]): -96%
- Activity (SN12C): -47%
- GI50 (T47D; read-out: GI50): 19.7 µM
- CC50 (T47D; [22]): 71.6 µM
- TGI (T47D; read-out: TGI): 37.6 µM
- GI50 (T47D; read-out: pGI50 (converted)): 20 µM
- CC50 (T47D; [23]): 70.8 µM
- TGI (T47D; read-out: pTGI (converted)): 38 µM
- Activity (NCI-H23): 94%
- Activity (HL-60(TB) [16]): 91%
- Activity (MDA-MB-435 [17]): -83%
- Activity (CCRF-CEM [18]): -49%
- Activity (SF-268 [19]): 83%
- Activity (MCF7): 87%
- Activity (K562 [20]): 86%
- Activity (OVCAR-8): 89%
- Activity (M14): -75%
- GI50 (U-251 [21]; read-out: GI50): 1.82 µM
- TGI (U-251 [21]; read-out: TGI): 3.43 µM
- GI50 (U-251 [21]; read-out: pGI50 (converted)): 1.82 µM
- TGI (U-251 [21]; read-out: pTGI (converted)): 3.47 µM
- GI50 (SK-OV-3; read-out: GI50): 18.7 µM
- CC50 (SK-OV-3; [22]): 59.6 µM
- TGI (SK-OV-3; read-out: TGI): 33.4 µM
- GI50 (SK-OV-3; read-out: pGI50 (converted)): 18.6 µM
- CC50 (SK-OV-3; [23]): 60.3 µM
- TGI (SK-OV-3; read-out: pTGI (converted)): 33.1 µM
- GI50 (ACHN; read-out: GI50): 1.63 µM
- CC50 (ACHN; [22]): 6.79 µM
- TGI (ACHN; read-out: TGI): 3.32 µM
- GI50 (ACHN; read-out: pGI50 (converted)): 1.62 µM
- CC50 (ACHN; [23]): 6.76 µM
- TGI (ACHN; read-out: pTGI (converted)): 3.31 µM

SMILES: O=C(CCCn1c2c(sc3ccccc32)c(=O)n2nnc(-c3ccccc3)c12)NCCc1c[nH]cn1
- Activity (MDA-MB-435 [1]): 69%
- GI50 (MDA-MB-468; read-out: GI50): 0.339 µM
- CC50 (MDA-MB-468; [22]): 3.77 µM
- TGI (MDA-MB-468; read-out: TGI): 1.21 µM
- GI50 (MDA-MB-468; read-out: pGI50 (converted)): 0.339 µM
- CC50 (MDA-MB-468; [23]): 3.8 µM
- TGI (MDA-MB-468; read-out: pTGI (converted)): 1.2 µM
- Activity (OVCAR-5): 14%
- Activity (SF-295): -65%
- Activity (Malme-3M): 101%
- Activity (CCRF-CEM [2]): 24%
- Activity (LOX IMVI [3]): -100%
- Activity (SF-268 [4]): 93%
- Activity (UACC-62): 99%
- Activity (NCI-H322M): 104%
- Activity (A498 [5]): 93%
- Activity (MDA-MB-231): 109%
- GI50 (SK-MEL-5 [6]; read-out: GI50): 2.02 µM
- CC50 (SK-MEL-5 [6]; [22]): 33.2 µM
- TGI (SK-MEL-5 [6]; read-out: TGI): 11 µM
- GI50 (SK-MEL-5 [6]; read-out: pGI50 (converted)): 2.04 µM
- CC50 (SK-MEL-5 [6]; [23]): 33.1 µM
- TGI (SK-MEL-5 [6]; read-out: pTGI (converted)): 11 µM
- Activity (K562 [7]): 65%
- GI50 (SR [8]; read-out: GI50): 0.218 µM
- CC50 (SR [8]; [22]): 4.99 µM
- TGI (SR [8]; read-out: TGI): 0.664 µM
- GI50 (SR [8]; read-out: pGI50 (converted)): 0.219 µM
- CC50 (SR [8]; [23]): 5.01 µM
- TGI (SR [8]; read-out: pTGI (converted)): 0.661 µM
- Activity (U-251 [9]): -100%
- Activity (SR [10]): 85%
- Activity (OVCAR-3): 133%
- Activity (A498 [11]): -85%
- Activity (LOX IMVI [12]): 103%
- Activity (HL-60(TB) [13]): 93%
- Activity (A498 [14]): 55%
- Activity (SK-MEL-5 [15]): -100%
- Activity (SN12C): -100%
- GI50 (T47D; read-out: GI50): 1.27 µM
- CC50 (T47D; [22]): 30.6 µM
- TGI (T47D; read-out: TGI): 6.37 µM
- GI50 (T47D; read-out: pGI50 (converted)): 1.26 µM
- CC50 (T47D; [23]): 30.9 µM
- TGI (T47D; read-out: pTGI (converted)): 6.31 µM
- Activity (NCI-H23): 65%
- Activity (HL-60(TB) [16]): 43%
- Activity (MDA-MB-435 [17]): -76%
- Activity (CCRF-CEM [18]): -100%
- Activity (SF-268 [19]): 79%
- Activity (MCF7): 75%
- Activity (K562 [20]): 1%
- Activity (OVCAR-8): 32%
- Activity (M14): -80.56%
- GI50 (U-251 [21]; read-out: GI50): 0.165 µM
- CC50 (U-251 [21]; [22]): 4.3 µM
- TGI (U-251 [21]; read-out: TGI): 1.85 µM
- GI50 (U-251 [21]; read-out: pGI50 (converted)): 0.166 µM
- CC50 (U-251 [21]; [23]): 4.27 µM
- TGI (U-251 [21]; read-out: pTGI (converted)): 1.86 µM
- GI50 (SK-OV-3; read-out: GI50): 2.39 µM
- CC50 (SK-OV-3; [22]): 29.2 µM
- TGI (SK-OV-3; read-out: TGI): 8.5 µM
- GI50 (SK-OV-3; read-out: pGI50 (converted)): 2.4 µM
- CC50 (SK-OV-3; [23]): 29.5 µM
- TGI (SK-OV-3; read-out: pTGI (converted)): 8.51 µM
- GI50 (ACHN; read-out: GI50): 1.58 µM
- CC50 (ACHN; [22]): 6.26 µM
- TGI (ACHN; read-out: TGI): 3.14 µM
- GI50 (ACHN; read-out: pGI50 (converted)): 1.58 µM
- CC50 (ACHN; [23]): 6.31 µM
- TGI (ACHN; read-out: pTGI (converted)): 3.16 µM
